Some results are limits rather than exact numbers.

For orientation: IC50 means the concentration at which inhibition is half-maximal.

In the assay the target is T1, Chk1 (Homo sapiens, UniProt O14757).
T1 construct: purchased Upstate Biotechnology
T1 sequence (O14757 1-476): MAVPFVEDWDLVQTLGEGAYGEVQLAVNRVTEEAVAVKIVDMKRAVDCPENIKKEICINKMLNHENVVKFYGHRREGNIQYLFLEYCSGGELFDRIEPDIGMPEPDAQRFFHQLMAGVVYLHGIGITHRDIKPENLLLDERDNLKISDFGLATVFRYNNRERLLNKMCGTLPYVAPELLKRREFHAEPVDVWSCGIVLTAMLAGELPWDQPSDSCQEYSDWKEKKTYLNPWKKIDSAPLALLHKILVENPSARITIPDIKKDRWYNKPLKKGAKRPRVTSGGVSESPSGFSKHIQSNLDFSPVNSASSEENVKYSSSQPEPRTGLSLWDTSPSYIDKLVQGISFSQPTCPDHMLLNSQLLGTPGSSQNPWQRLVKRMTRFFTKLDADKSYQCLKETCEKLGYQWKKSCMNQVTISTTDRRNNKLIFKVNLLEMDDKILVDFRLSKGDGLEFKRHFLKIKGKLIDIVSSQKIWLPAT
Briefly: Chk1 kinase assay: incorporation of γ-33P ATP into immobilized myelin basic protein. It is filed as biochemical. The following applies: Table 11; Chk1 only; read-out: Chk1 IC50. In a few lines: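 Read-out is scintillation counting of 33P incorporated into plate-bound myelin basic protein. Chk1 runs at 10 nM enzyme with 10 μM ATP, Chk2 at 20 nM with 30 μM ATP, each for 1 hour at room temperature. Duplicate points; IC50 taken as 50% activity reduction, Ki computed from IC50.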
With `Nc1ncc(-c2cccc(C(=O)NCc3ccccc3)c2)nc1-c1nc(-c2ccccc2)n(-c2ccccc2)n1` [Example 670, 3-[5-amino-6-(1,5-diphenyl-1H-1,2,4-triazol-3-yl)pyrazin-2-yl]-N-(phenylmethyl)benzamide], the 50% inhibitory concentration (IC50) is not below 10 µM.
`Cc1nc(-c2nc(-c3cccc(C(=O)NCc4ccccc4)c3)cnc2N)nn1C` [Example 671, 3-[5-amino-6-(1,5-dimethyl-1H-1,2,4-triazol-3-yl)pyrazin-2-yl]-N-(phenylmethyl)benzamide]: the 50% inhibitory concentration (IC50) is 1 to 10 µM.
For the molecule `Cn1nc(-c2nc(-c3cccc(C(=O)NCc4ccccc4)c3)cnc2N)nc1-c1ccccc1` [Example 672, 3-[5-amino-6-(1-methyl-5-phenyl-1H-1,2,4-triazol-3-yl)pyrazin-2-yl]-N-(phenylmethyl)benzamide], the half-maximal inhibitory concentration (IC50) was not below 10 µM.
For the molecule `COC[C@H]1CCCN1/N=C(\C)c1nc(-c2cccc(C(=O)NCc3ccccc3)c2)cnc1N` [Example 673, 3-[5-amino-6-((1E)-N-{(2R)-2-[(methyloxy)methyl]pyrrolidin-1-yl}ethanimidoyl)pyrazin-2-yl]-N-(phenylmethyl)benzamide], the IC50 was in the range of 0.05 to 1 µM.
For `C/C(=N\N1CCCCCC1)c1nc(-c2cccc(C(=O)NCc3ccccc3)c2)cnc1N` [Example 674, 3-{5-amino-6-[(1E)-N-azepan-1-ylethanimidoyl]pyrazin-2-yl}-N-(phenylmethyl)benzamide], the IC50 was 0.05 to 1 µM.
The figure for `Nc1ncc(-c2cccc(C(=O)NCc3ccccc3)c2)nc1/C=N/NCc1ccccc1` [Example 675, 3-(5-amino-6-{(E)-[(phenylmethyl)hydrazono]methyl}pyrazin-2-yl)-N-(phenylmethyl)benzamide] is not below 10 µM; for `N=C(N)N/N=C/c1nc(-c2cccc(C(=O)NCc3ccccc3)c2)cnc1N` [Example 676, 3-[5-amino-6-((E)-{[amino(imino)methyl]hydrazono}methyl)pyrazin-2-yl]-N-(phenylmethyl)benzamide] it is not below 10 µM; for `Nc1ncc(-c2cccc(C(=O)NCc3ccccc3)c2)nc1/C=N/NCCO` [Example 677, 3-(5-amino-6-{(E)-[(2-hydroxyethyl)hydrazono]methyl}pyrazin-2-yl)-N-(phenylmethyl)benzamide] it is 1 to 10 µM.
The figure for `Nc1ncc(-c2cccc(C(=O)NCc3ccccc3)c2)nc1/C=N/Nc1ccccn1` [Example 678, 3-{5-amino-6-[(E)-(pyridin-2-ylhydrazono)methyl]pyrazin-2-yl}-N-(phenylmethyl)benzamide] is not below 10 µM; for `N#Cc1ccc(N/N=C/c2nc(-c3cccc(C(=O)NCc4ccccc4)c3)cnc2N)cc1` [Example 679, 3-(5-amino-6-{(E)-[(4-cyanophenyl)hydrazono]methyl}pyrazin-2-yl)-N-(phenylmethyl)benzamide] it is not below 10 µM; for `Cc1ccc(N/N=C/c2nc(-c3cccc(C(=O)NCc4ccccc4)c3)cnc2N)cc1` [Example 680, 3-(5-amino-6-{(E)-[(4-methylphenyl)hydrazono]methyl}pyrazin-2-yl)-N-(phenylmethyl)benzamide] it is not below 10 µM.
Consider `Nc1ncc(-c2cccc(C(=O)NCc3ccccc3)c2)nc1/C=N/O` [Example 681, 3-{5-amino-6-[(E)-(hydroxyimino)methyl]pyrazin-2-yl}-N-(phenylmethyl)benzamide], for which the concentration for half-maximal inhibition (IC50) is 1 to 10 µM.
The figure for `Nc1ncc(-c2cccc(CO)c2)nc1-c1nc(-c2ccccn2)n[nH]1` [Example 682, {3-[5-amino-6-(3-pyridin-2-yl-1H-1,2,4-triazol-5-yl)pyrazin-2-yl]phenyl}methanol] is 1 to 10 µM.
Take `Nc1ncc(-c2cccc(CN[C@@H]3CCc4ccccc43)c2)nc1-c1nc(C2CCCNC2)n[nH]1` (stereo partly drawn) [Example 683, 5-(3-{[(1R)-2,3-dihydro-1H-inden-1-ylamino]methyl}phenyl)-3-(3-piperidin-3-yl-1H-1,2,4-triazol-5-yl)pyrazin-2-amine]: the IC50 was less than 0.05 µM.
The figure for `CN(C)c1ccc(C(=O)NCCCNC(=O)c2nc(-c3cccc(C(=O)NCc4ccccc4)c3)cnc2N)cc1` [Example 684, 3-amino-N-[3-({[4-(dimethylamino)phenyl]carbonyl}amino)propyl]-6-(3-{[(phenylmethyl)amino]carbonyl}phenyl)pyrazine-2-carboxamide] is not below 10 µM.
The figure for `Nc1ncc(-c2cccc(CN[C@H]3CCc4ccccc43)c2)nc1C(=O)N[C@H]1CCNC1` [Example 685, 3-amino-6-(3-{[(1S)-2,3-dihydro-1H-inden-1-ylamino]methyl}phenyl)-N-[(3S)-pyrrolidin-3-yl]pyrazine-2-carboxamide] is less than 0.05 µM; for `CC(C)(C)OC(=O)N1CCC(N2CC[C@H](NC(=O)c3nc(-c4cccc(C(=O)NCc5ccccc5)c4)cnc3N)C2)CC1` [Example 686, 1,1-dimethylethyl 4-[(3S)-3-({[3-amino-6-(3-{[(phenylmethyl)amino]carbonyl}phenyl)pyrazin-2-yl]carbonyl}amino)pyrrolidin-1-yl]piperidine-1-carboxylate] it is 1 to 10 µM; for `Nc1ncc(-c2cccc(C(=O)NCc3ccccc3)c2)nc1C(=O)N[C@H]1CCN(C2CCNCC2)C1` [Example 687, 3-amino-6-(3-{[(phenylmethyl)amino]carbonyl}phenyl)-N-[(3S)-1-piperidin-4-ylpyrrolidin-3-yl]pyrazine-2-carboxamide] it is 1 to 10 µM.
The figure for `CC(C)(C)OC(=O)N1CCC[C@@H]1CN1CC[C@H](NC(=O)c2nc(-c3cccc(C(=O)NCc4ccccc4)c3)cnc2N)C1` [Example 688, 1,1-dimethylethyl (2R)-2-{[(3S)-3-({[3-amino-6-(3-{[(phenylmethyl)amino]carbonyl}phenyl)pyrazin-2-yl]carbonyl}amino)pyrrolidin-1-yl]methyl}pyrrolidine-1-carboxylate] is not below 10 µM; for `Nc1ncc(-c2cccc(C(=O)NCc3ccccc3)c2)nc1C(=O)N[C@H]1CCN(C[C@H]2CCCN2)C1` [Example 689, 3-amino-6-(3-{[(phenylmethyl)amino]carbonyl}phenyl)-N-{(3S)-1-[(2R)-pyrrolidin-2-ylmethyl]pyrrolidin-3-yl}pyrazine-2-carboxamide] it is 1 to 10 µM; for `CN(C)c1ccc(CN2CC[C@H](NC(=O)c3nc(-c4cccc(C(=O)NCc5ccccc5)c4)cnc3N)C2)cc1` [Example 690, 3-amino-N-((3S)-1-{[4-(dimethylamino)phenyl]methyl}pyrrolidin-3-yl)-6-(3-{[(phenylmethyl)amino]carbonyl}phenyl)pyrazine-2-carboxamide] it is 1 to 10 µM.
Turning to `CN(C)c1ccc(NC(=O)NCCNC(=O)c2nc(-c3cccc(C(=O)NCc4ccccc4)c3)cnc2N)cc1` [Example 691, 3-amino-N-{2-[({[4-(dimethylamino)phenyl]amino}carbonyl)amino]ethyl}-6-(3-{[(phenylmethyl)amino]carbonyl}phenyl)pyrazine-2-carboxamide], the half-inhibitory concentration (IC50) is not below 10 µM.
In the case of `CN(C)c1ccc(C(=O)NCCNC(=O)c2nc(-c3cccc(C(=O)NCc4ccccc4)c3)cnc2N)cc1` [Example 692, 3-amino-N-[2-({[4-(dimethylamino)phenyl]carbonyl}amino)ethyl]-6-(3-{[(phenylmethyl)amino]carbonyl}phenyl)pyrazine-2-carboxamide], the IC50 was not below 10 µM.
For the molecule `N=C(NNc1ccccn1)c1nc(-c2cccc(C(=O)NCc3ccccc3)c2)cnc1N` [Example 693, 3-{5-amino-6-[imino(2-pyridin-2-ylhydrazino)methyl]pyrazin-2-yl}-N-(phenylmethyl)benzamide], the IC50 was not below 10 µM.
The figure for `Nc1ncc(-c2cccc(C(=O)NCc3ccccc3)c2)nc1CN1CCOCC1` [Example 694, 3-[5-amino-6-(morpholin-4-ylmethyl)pyrazin-2-yl]-N-(phenylmethyl)benzamide] is not below 10 µM; for `CCOC(=O)C1CCN(Cc2nc(-c3cccc(C(=O)NCc4ccccc4)c3)cnc2N)CC1` [Example 695, ethyl 1-{[3-amino-6-(3-{[(phenylmethyl)amino]carbonyl}phenyl)pyrazin-2-yl]methyl}piperidine-4-carboxylate] it is not below 10 µM; for `Nc1ncc(-c2cccc(C(=O)NCc3ccccc3)c2)nc1C(=O)N[C@H]1CCN(Cc2ccccn2)C1` [Example 696, 3-amino-6-(3-{[(phenylmethyl)amino]carbonyl}phenyl)-N-[(3S)-1-(pyridin-2-ylmethyl)pyrrolidin-3-yl]pyrazine-2-carboxamide] it is 0.05 to 1 µM.
To `COC(=O)[C@@H](NC(=O)c1nc(-c2cccc(C(=O)NCc3ccccc3)c2)cnc1N)[C@@H](C)O` [Example 697, methyl N-{[3-amino-6-(3-{[(phenylmethyl)amino]carbonyl}phenyl)pyrazin-2-yl]carbonyl}threoninate] belongs not below 10 µM; to `Nc1ncc(-c2cccc(CO)c2)nc1-c1nc(C2CCCCN2)n[nH]1` (stereo not drawn) [Example 698, {3-[5-amino-6-(3-piperidin-2-yl-1H-1,2,4-triazol-5-yl)pyrazin-2-yl]phenyl}methanol], not below 10 µM; to `CCNc1ncc(-c2cccc(C(=O)NCc3ccccc3)c2)nc1C(=O)N[C@H]1CCN(CC)C1` [Example 699, 3-(ethylamino)-N-[(3S)-1-ethylpyrrolidin-3-yl]-6-(3-{[(phenylmethyl)amino]carbonyl}phenyl)pyrazine-2-carboxamide], not below 10 µM.

The values above are taken from patent US7704995B2 (Exelixis, Inc., priority 2003, dated 2010).
